From US20260217761A1, “ANTIMICROBIAL PEPTIDE RICH IN TRYPTOPHAN AND HAVING SELF-ASSEMBLY PROPERTIES, AND USE THEREOF” (NANOQURE BIOTECH (SHENZHEN) CO., LTD., priority 2022, published 2026)
≈ marks a conversion by molar mass, not a printed value. Non-standard residues stand in square brackets, D forms with d. Residues, ends and D or L forms follow the SMILES beside them.

Columns and labels:
A. baumannii 780 = assay type: cell-based, Acinetobacter baumannii
Protocol: (§1) • A. The polypeptide Z4 composed entirely of dextrorotatory amino acids is called the dextrorotatory isomer of polypeptide Z4. The polypeptide Z4-D was prepared into a certain stock solution for use. 0.01% acetic acid (containing 0.2% BSA) was used as the diluent, and a series of gradient antimicrobial peptide solutions were prepared in sequence by a two-fold dilution method. • B. 100 μL of the above-mentioned antimicrobial peptide stock solution was taken and placed in a 96-well cell culture plate. Then, an equal volume of the test bacterial solution (approximately […]) was added to each well. A positive control (containing the bacterial solution but no antimicrobial peptide) and a negative control (containing neither the bacterial solution nor the peptide) were included, respectively. The test bacterial species include Pseudomonas aeruginosa (Pseudomonas aeruginosa PL1, Pseudomonas aeruginosa SP1), Staphylococcus aureus (Staphylococcus aureus 544, Staphylococcus aureus 103), Escherichia coli (Escherichia coli 729, Escherichia coli 112), Klebsiella Pneumoniae (Klebsiella Pneumoniae 106, Klebsiella Pneumoniae 727), Streptococcus pneumonia 383, and Acinetobacter baumannii (Acinetobacter baumannii 946, Acinetobacter baumannii 780). • C. […] The minimum inhibitory concentration is determined as the condition where no turbidity is observed at the bottom of the well with naked eyes.

A. baumannii 946 = assay type: cell-based, Acinetobacter baumannii
Protocol: as §1

various bacteria = assay: MIC against various bacteria (broad-spectrum antimicrobial activity); assay type: cell-based
Protocol: • A. The antimicrobial peptide was prepared into a certain stock solution for use. 0.01% acetic acid (containing 0.2% BSA) was used as the diluent, and a series of gradient antimicrobial peptide solutions were prepared sequentially by a two-fold dilution method. • B. 100 μL of the above-mentioned antimicrobial peptide stock solution was taken and placed in a 96-well cell culture plate. Then, an equal volume of the test bacterial solution (approximately 10^5 cells/mL) was added to each well. A positive control (containing the bacterial solution but no antimicrobial peptide) and a negative control (containing neither bacterial solution nor the peptide) were included, respectively. The test bacterial species include Pseudomonas aeruginosa (Pseudomonas aeruginosa PL1, Pseudomonas aeruginosa SP1), Staphylococcus aureus (Staphylococcus aureus 544, Staphylococcus aureus 103), Escherichia coli (Escherichia coli 729, Escherichia coli 112), Klebsiella Pneumoniae (Klebsiella Pneumoniae 106, Klebsiella Pneumoniae 727), Streptococcus pneumonia 383, Acinetobacter baumannii (Acinetobacter baumannii 946, Acinetobacter baumannii 780) (FIG. 1), or Pseudomonas aeruginosa (Pseudomonas aeruginosa PAO1), Staphylococcus aureus (Staphylococcus aureus SP1), and a mixed solution of the above two bacteria (FIG. 2). • C. The culture plate was placed in a constant temperature incubator at 37° C. for 20 h. The minimum inhibitory concentration is determined as the condition where no turbidity is observed at the bottom of the well with naked eyes.
• A. The polypeptide Z4 composed entirely of dextrorotatory amino acids is called the dextrorotatory isomer of polypeptide Z4. The polypeptide Z4-D was prepared into a certain stock solution for use. […] The minimum inhibitory concentration is determined as the condition where no turbidity is observed at the bottom of the well with naked eyes.

E. coli 112 = assay type: cell-based, Escherichia coli
Protocol: as §1

E. coli 729 = assay type: cell-based, Escherichia coli
Protocol: as §1

[1] = system: mixed bacterial solution of P. aeruginosa PAO1 and S. aureus SP1; assay type: cell-based; conditions: within 0-120 minutes of proteinase K treatment, remained unchanged
Protocol: After ultrasonic treatment of polypeptide Z4 and polypeptide Z4-D for 30 min, they were placed at room temperature for 2 h to promote their self-assembly. Subsequently, proteinase K with a final concentration of 0.2 g/mL was mixed with the polypeptide solution (final concentration of 640 μM) and incubated at 37° C. for 0, 30, 60, 90 or 120 min respectively. Then, according to the scheme described in Example 2, the MICs of the polypeptides against the mixed bacterial solution of P. aeruginosa PAO1 and S. aureus SP1 under different treatment conditions were determined.

S. pneumoniae 383 = assay type: cell-based, Streptococcus pneumonia
Protocol: as §1

K. pneumoniae 106 = assay type: cell-based, Klebsiella Pneumoniae
Protocol: as §1

K. pneumoniae 727 = assay type: cell-based, Klebsiella Pneumoniae
Protocol: as §1

S. aureus 544 = assay type: cell-based, Staphylococcus aureus
Protocol: as §1

S. aureus 103 = assay type: cell-based, Staphylococcus aureus
Protocol: as §1

P. aeruginosa SP1 = assay type: cell-based, Pseudomonas aeruginosa
Protocol: as §1

P. aeruginosa PL1 = assay type: cell-based, Pseudomonas aeruginosa
Protocol: as §1

Structure (SMILES): NCCCC[C@@H](NC(=O)[C@@H](Cc1c[nH]c2ccccc12)NC(=O)[C@H](N)Cc1c[nH]c2ccccc12)C(=O)N[C@H](CCCCN)C(=O)N[C@H](Cc1c[nH]c2ccccc12)C(=O)N[C@H](CCCCN)C(=O)N[C@H](CCCCN)C(=O)N[C@H](Cc1c[nH]c2ccccc12)C(=O)N[C@H](Cc1c[nH]c2ccccc12)C(N)=O [Z4-D] (H-[dW][dW][dK][dK][dW][dK][dK][dW][dW]-NH2; N-terminus assumed)
- MIC (A. baumannii 780): 16 µM (≈ 23.4 µg/mL)
- MIC (A. baumannii 946): 4 µM (≈ 5.84 µg/mL)
- broad-spectrum antimicrobial activity (various bacteria): good broad-spectrum antimicrobial activity
- MIC (E. coli 112): 4 µM (≈ 5.84 µg/mL)
- MIC (E. coli 729): 4 µM (≈ 5.84 µg/mL)
- MIC after proteinase K treatment [1]: 4 µM (≈ 5.84 µg/mL)
- MIC (S. pneumoniae 383): 4 µM (≈ 5.84 µg/mL)
- MIC (K. pneumoniae 106): 128 µM (≈ 187 µg/mL)
- MIC (K. pneumoniae 727): 32 µM (≈ 46.7 µg/mL)
- MIC (S. aureus 544): 4 µM (≈ 5.84 µg/mL)
- MIC (S. aureus 103): 4 µM (≈ 5.84 µg/mL)
- MIC (P. aeruginosa SP1): 4 µM (≈ 5.84 µg/mL)
- MIC (P. aeruginosa PL1): 16 µM (≈ 23.4 µg/mL)
